Experimental data taken from BindingDB's records for doi:10.7270/Q2F18X5F (Nmmlsc, 2010).

Molecular target: T1, Ammonium transporter MEP2 (Saccharomyces cerevisiae (strain ATCC 204508 / S288c), UniProt P41948)
T1 sequence (P41948 whole entry): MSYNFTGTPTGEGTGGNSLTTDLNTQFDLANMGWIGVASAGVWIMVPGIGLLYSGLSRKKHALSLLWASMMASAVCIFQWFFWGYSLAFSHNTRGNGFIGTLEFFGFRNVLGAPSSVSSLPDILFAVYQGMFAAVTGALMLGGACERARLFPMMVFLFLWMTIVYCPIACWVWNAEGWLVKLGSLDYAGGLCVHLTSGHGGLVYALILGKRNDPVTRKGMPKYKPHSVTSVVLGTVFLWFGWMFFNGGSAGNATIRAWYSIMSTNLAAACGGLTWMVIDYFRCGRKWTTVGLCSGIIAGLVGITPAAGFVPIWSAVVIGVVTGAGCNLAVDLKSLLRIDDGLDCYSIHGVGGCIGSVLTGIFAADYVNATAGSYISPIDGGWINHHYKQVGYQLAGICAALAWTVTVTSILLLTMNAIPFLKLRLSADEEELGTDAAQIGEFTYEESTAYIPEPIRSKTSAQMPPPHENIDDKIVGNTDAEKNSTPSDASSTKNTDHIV
Experiment: TOR pathway reporter MEP2-GFP, concentration series – S. cerevisiae, flow cytometry GFP, MLPCN hits, dose response (AID 2742)

Work on CCN1/C(=C/c2ccc3cc(C)ccc3[n+]2CC)Sc2ccc3sccc3c21 [MLS000724336] yielded an EC50 greater than 33 µM.
